Experiment: Stability in solution of 211At-labeling products of biotin-sarcosine-bis-B10 by radio-HPLC
Assay type: physicochemical
Experimental: FIGS. 22A-22D compare radio-HPLC chromatograms of reaction product from ^211At labeling of Compound 8 (see FIG. 21): 0.1 mg of Compound 8 was reacted with ^211At in 5% HOAc in MeOH/H2O without ChT at room temperature for 5 min (22A) and the reaction mixture sat at room temperature for about 1 h (22B); and 0.1 mg of Compound 8 was reacted with ^211At in 5% HOAc in MeOH/H2O with 10 μg of ChT at room temperature for 3 min. (22C) the reaction mixture after setting at room temperature for about 2 h (22D).
In an ^211At-labeling reaction with biotin-sarcosine-bis-B10, 8, a solution of [^211At]NaAt in 5% HOAc in MeOH/H2O was reacted at room temperature for 5 min without an oxidant. The reaction was quenched with 10 μL of 1 mg/mL Na2S2O5 (a reductant). The reaction provided one major ^211At labeled product (95%) as shown the radio-HPLC peak at about 10.1 min (FIG. 22A). […] In another ^211At-labeling reaction, the same reaction conditions as above were used except a chemical oxidant chloramine-T (ChT) was added to the reaction solution. The reaction with ChT provided multiple products that were eluted from 9-11 min. After sitting at room temperature for 2 h, a significant amount of free ^211At was observed (29%) (FIG. 22D).

Substance: 3,5-B10H9-dioxa-Ph-Sar-Biotin [Compound 8]
- free 211At observed (labeled with ChT, after sitting at room temperature for 2 h): 29%
- change in 211At-labeled product in solution (labeled without oxidant, quenched, 1 h at room temperature): No change
